Source: patent US20180094250A1, “Methods And Compositions For PCR” (Life Technologies Coroporation, priority 2007, published 2018)

Assays:
Type in all cases: biochemical
cDNA (human) = test: PCR Residual Activity Assay with three primer sets, agarose gel; settings: preincubation 25° C. for 60 min, 40 cycles
Method: Under these conditions, if hot-start techniques were not employed, primer dimers tend to form in the PCR reaction mix.
This example includes reactions which is referred to as PCR Residual Activity Assay that involved three set of primers respectively. The primer sets are commercially available from Applied Biosystems, Foster City, Calif. Specifically, Set 1 is Hs00378363_g1; Set 2, Hs00399572_m1 and Set 3, Hs00372859_m1.
The components are listed below:
50 Unit/ml DNA polymerase
and 0.8 ng/μl cDNA (human)
Due to the needs of the individual polymerases, 1× buffer and 1×MgCl2 are different as stated below:
The cycling conditions for ECA001 are listed below:
The cycling conditions for ECA001-Gold:
The cycling conditions for AmpliTaq:
The cycling conditions for AmpliTaq Gold:
Each reaction was run in duplication.

[1] = exonuclease to polymerase activity ratio after modification and re-activation; settings: 5′-3′ exonuclease activity
Description: (See details in Example 5)
It is true that lysine is a common amino acid that can be found in many enzymes.

[2] = polymerase activity at room temperature relative to peak activity
Description: Pol B DNA polymerases enzymes have relative low polymerase activity at room temperature, while Taq DNA polymerase still retains >5% of its peak activity (FIG. 4).

Substance | non-specific/primer-dimer products versus specific products (cDNA (human)) | exonuclease to polymerase activity ratio [1] | polymerase activity retained, of its peak activity [2]
AmpliTaq Gold: commercial hot-start modified Taq polymerase used as comparator | mostly the specific products | – | –
AmpliTaq: AmpliTaq DNA polymerase | mostly non-specific/primer-dimer products | has been changed | –
Taq DNA polymerase: Thermus aquaticus Pol I (Taq DNA polymerase) | – | – | > 5%
